A word on the EC50: it is the concentration at which the effect is half-maximal. The inhibition is the change of the read-out against control, counted positive when it falls. By Ki is commonly meant a dissociation constant, usually derived from enzyme kinetics or from competition with a known ligand. Broadly, the Kd is the concentration at which binding is half-saturated. As usually defined, the IC50 is the midpoint of a concentration-inhibition curve.

Like-named read-outs stand apart in the source and are kept apart here.

Data set [1] relates to Francisella tularensis subsp. novicida Utah 112. The data set is described as follows: microbe, parasite or virus in culture. Conditions: for EC50: read-out: EC50, growth inhibition. Type of data set: cell-based.
Data set [2] relates to FtIspD. It counts as biochemical, Francisella tularensis.
Data set [3] relates to FtIspD. It counts as biochemical, Francisella tularensis. This is another data set of the same source.
The next data set deals with Y. pestis IspC (YpIspC) (Yersinia pestis, UniProt Q8ZH62). The data set is described as follows: biochemical. Conditions: for % Residual Activity: 100 µM; for remaining activity at 100 µM: read-out: % Residual Activity.
Chain of Y. pestis IspC (YpIspC) (Q8ZH62 whole entry, looked up): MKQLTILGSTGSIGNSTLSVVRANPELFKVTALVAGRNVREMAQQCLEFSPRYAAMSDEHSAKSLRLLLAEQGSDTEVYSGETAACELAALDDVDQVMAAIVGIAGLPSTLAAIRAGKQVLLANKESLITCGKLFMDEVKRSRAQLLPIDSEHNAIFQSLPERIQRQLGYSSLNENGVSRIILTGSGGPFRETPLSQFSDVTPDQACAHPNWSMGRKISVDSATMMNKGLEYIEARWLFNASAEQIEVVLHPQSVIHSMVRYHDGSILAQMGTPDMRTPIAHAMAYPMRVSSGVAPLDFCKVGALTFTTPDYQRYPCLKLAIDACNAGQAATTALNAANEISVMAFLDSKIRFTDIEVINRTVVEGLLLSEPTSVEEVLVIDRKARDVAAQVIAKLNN
The test system of data set [4] is Yersinia pestis subsp. A1122. The data set is described as follows: microbe, parasite or virus in culture. Type of data set: cell-based.
For data set [5] the following is noted: literature search; cited from earlier work.
Data set [6] concerns Francisella tularensis subsp. novicida Utah 112. Conditions: read-out: EC50, growth inhibition; cited from earlier work.
The subject of data set [7] is Yersinia pestis subsp. A1122. The note with it: read-out: EC50, growth inhibition; cited from earlier work.
For data set [8], the system named is F. tularensis IspD (FtIspD). Type of data set: biochemical, Francisella tularensis.
A further data set has as its target T1, E.coli IspD (EcIspD) (Escherichia coli, UniProt Q46893).
T1 sequence (Q46893 1-236): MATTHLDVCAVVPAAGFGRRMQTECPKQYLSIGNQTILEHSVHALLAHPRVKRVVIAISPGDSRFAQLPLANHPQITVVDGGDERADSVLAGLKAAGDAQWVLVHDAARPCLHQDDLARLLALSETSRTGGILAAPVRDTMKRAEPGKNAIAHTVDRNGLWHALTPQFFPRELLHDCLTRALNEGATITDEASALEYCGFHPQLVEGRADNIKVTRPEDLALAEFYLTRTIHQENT
The data set is described as follows: Secondary screen, cuvette-based assay with EcIspD. Type of data set: biochemical.

The test system of a further data set is CYP34A. The note with it: direct competitive inhibitor; cited from earlier work.
The next data set has as its target PI3K. Conditions: competitive inhibitor; cited from earlier work.
In the next data set the test system is JNK. Conditions: cited from earlier work.
Data set [9] concerns the target T2, YpIspC (Yersinia pestis, UniProt Q8ZH62). It counts as biochemical.
In data set [10] the target is T2, YpIspC. Type of data set: biochemical. The source holds these as a separate data set.
Where [11] appears, read: Yersinia pestis, SUBSP.A1122, read-out: EC50, growth inhibition.

T2 sequence (Q8ZH62 whole entry, looked up): as the sequence (Q8ZH62 whole entry, looked up) above

Take `NC(Cc1cc(O)c(O)cc1O)C(=O)O` (racemic) [6-hydroxy-DL-DOPA]: the “antibacterial activity in the quaternary screen” value (“antibacterial activity” for short) in data set [1] is “failed to show significant antimicrobial activity”. In addition, the “attenuation of inhibition in the presence of detergent” value in the data set with FtIspD [2] is “did not attenuate inhibition”. In the data set on FtIspD [3], the “mode of inhibition with respect to CTP” value is given as “competitive” and the “mode of inhibition with respect to MEP” value was “noncompetitive”.

For `O=C(O)C1=CC(=C(c2ccc(O)c(C(=O)O)c2)c2ccc(O)c(C(=O)O)c2)C=CC1=O` [Aurintricarboxylic acid], the “antibacterial activity” value in [1] is reported as “failed to show significant antimicrobial activity”.

`O.Oc1cc(O)c2c(c1)O[C@H](c1ccc(O)c(O)c1)[C@@H](O)C2` [Catechin]: the “% Residual Activity” value at Y. pestis IspC (YpIspC) was 96.65%.

For `Cc1cc(N)c2ccccc2[n+]1CCCCCCCCCC[n+]1c(C)cc(N)c2ccccc21.O.[Cl-].[Cl-]` [Dequalinium chloride, 1,1′-Decamethylenebis(4-aminoquinaldinium) dichloride hydrate], the “hit identification in the primary screen with YpIspC” value on Y. pestis IspC (YpIspC) is listed as “identified as inhibitors of IspC”. In addition, in data set [1], the “antibacterial activity” value was “significantly inhibit bacterial growth”. Besides, in data set [4] (setting [11]), the EC50 is over 100 µM. In addition, the “forming aggregates in solution” value in data set [5] was “forming aggregates in solution”.

For the compound `CC(=O)N(O)CCCP(=O)(O)O` [FR900098], the values for the EC50 in data set [6] and in data set [7] were 23 µM and 29 µM, respectively.

As for `O=C1Nc2ccc(I)cc2C1=Cc1cc(Br)c(O)c(Br)c1` [GW5074, 3-(3,5-Dibromo-4-hydroxybenzylidine-5-iodo-1,3-dihydro-indol-2-one)], the “hit identification in the primary screen with FtIspD” value in data set [8] is on record as “identified as inhibitors of FtIspD”. The “residual activity of EcIspD in the secondary screen” value at E.coli IspD (EcIspD) (secondary screen, 100 μM) is 47%. For the same compound, in data set [1], the “antibacterial activity” value is listed as “significantly inhibit bacterial growth”.

`COc1cc(/C=C(\C#N)C(=O)c2ccc(O)c(O)c2)cc(I)c1O` [I-OMe-Tyrphostin AG 538]: in [1], the “antibacterial activity” value is “failed to show significant antimicrobial activity”.

As for `O=C(Nc1cccc(C(=O)Nc2ccc(S(=O)(=O)O)c3cc(S(=O)(=O)O)cc(S(=O)(=O)O)c23)c1)Nc1cccc(C(=O)Nc2ccc(S(=O)(=O)O)c3cc(S(=O)(=O)O)cc(S(=O)(=O)O)c23)c1` [NF023], the “antibacterial activity” value in data set [1] is “failed to show significant antimicrobial activity”.

`CCCc1c(-c2ccc(O)cc2)nn(-c2ccc(O)cc2)c1-c1ccc(O)cc1` [PPT, 1,3,5-tris(4-hydroxyphenyl)-4-propyl-1H-pyrazole]: in [8], the “hit identification in the primary screen with FtIspD” value is on record as “identified as inhibitors of FtIspD”. At E.coli IspD (EcIspD) (read-out: residual activity of EcIspD in the secondary screen), the remaining activity at 100 µM was 55%. For the same compound, the “antibacterial activity” value in data set [1] is reported as “significantly inhibit bacterial growth”.

`O=c1c(O[C@@H]2O[C@H](CO)[C@H](O)[C@H](O)[C@H]2O)c(-c2ccc(O)c(O)c2)oc2cc(O)cc(O)c12` [Quercetin 3-D-Galactoside]: the “% Residual Activity” value at Y. pestis IspC (YpIspC) came to 76.779%.

Take `O=c1c(O[C@@H]2O[C@H](CO)[C@@H](O)[C@H](O)[C@H]2O)c(-c2ccc(O)c(O)c2)oc2cc(O)cc(O)c12` [Quercetin 3-β-D-glucoside]: the “% Residual Activity” value on Y. pestis IspC (YpIspC) amounted to 76.25%.

With `O=c1c(O)c(-c2ccc(O)c(O)c2)oc2cc(O)cc(O)c12` [Quercetin], the remaining activity at 100 µM at Y. pestis IspC (YpIspC) was found to be 4.83%. For the same compound, the inhibition at 100 µM on Y. pestis IspC (YpIspC) (read-out: inhibition of the catalytic activity of YpIspC) is over 95%. For the same compound, the “FtIspD activity, % of the uninhibited control” value in data set [8] was found to be 4%. Moreover, in data set [1], the residual growth result is recorded as “less than 25%”. Besides, the concentration giving a half-maximal response (EC50) in data set [1] (Francisella tularensis) is under 50 µM; in [1], 36 µM; in data set [4] (setting [11]) it was under 50 µM; in data set [4] (read-out: EC50, growth inhibition), 29 µM. For the same compound, the “forming aggregates in solution” value in data set [5] was “forming aggregates in solution”. In addition, the Ki with CYP34A is 15.4 µM. In addition, at PI3K, the dissociation constant Kd is 0.28 µM. Moreover, the IC50 in the data set with JNK was 1 µM.

Regarding `C[C@@H]1O[C@@H](Oc2c(-c3ccc(O)c(O)c3)oc3cc(O)cc(O)c3c2=O)[C@H](O)[C@H](O)[C@H]1O` [Quercitrin], the remaining activity at 100 µM on Y. pestis IspC (YpIspC) came to 78.2%.

Take `CC(=O)c1c(O)c(C)c(O)c(Cc2c(O)c3c(c(C(=O)C=Cc4ccccc4)c2O)OC(C)(C)C=C3)c1O` [Rottlerin, 3′-[(8-Cinnamoyl-5,7-dihydroxy-2,2-dimethyl-2H-1-benzopyran-6-yl)methyl]-2′,4′,6′-trihydroxy-5′-methylacetophenone]: the “residual FtIspD activity in the primary screen” value in data set [8] came out at 52%. Moreover, the “antibacterial activity” value in data set [1] is given as “significantly inhibit bacterial growth”. For the same compound, the “forming aggregates in solution” value in data set [5] is “forming aggregates in solution”.

On to `C[n+]1cc2c3c(ccc2c2ccc4cc5c(cc4c21)OCO5)OCO3` [Sanguinarine chloride, 13-Methyl-[1, 3]benzodioxolo[5,6-c]-1,3-dioxolo[4,5-i] phenanthridinium chloride], for which the “antibacterial activity” value in [1] is recorded as “significantly inhibit bacterial growth”. Further, at YpIspC [9], the “aggregating / non-aggregating inhibitor” value is “aggregating inhibitor” and the “dependence of IC50 on enzyme concentration” value is on record as “decreases with a decrease in YpIspC concentration”.

For `Cc1ccc(C(=O)Nc2ccc(S(=O)(=O)O)c3cc(S(=O)(=O)O)cc(S(=O)(=O)O)c23)cc1NC(=O)c1cccc(NC(=O)Nc2cccc(C(=O)Nc3cc(C(=O)Nc4ccc(S(=O)(=O)O)c5cc(S(=O)(=O)O)cc(S(=O)(=O)O)c45)ccc3C)c2)c1` [Suramin Hexasodium], the “antibacterial activity” value in data set [1] is “failed to show significant antimicrobial activity”. Also, at YpIspC [10], the “attenuation of inhibition in the presence of detergent” value is on record as “did not attenuate inhibition”. Also, on YpIspC [9], the “aggregating / non-aggregating inhibitor” value is on record as “non-aggregating”.

Turning to `C[C@]12C=CC(=O)C=C1CC[C@@H]1C2=CC[C@]2(C)[C@@H](C(=O)CN3CCN(c4cc(N5CCCC5)nc(N5CCCC5)n4)CC3)CC[C@@H]12.O=C(O)/C=C\C(=O)O` [U-74389G maleate], in data set [1], the “antibacterial activity” value is “failed to show significant antimicrobial activity”.

As for `COc1ccc2c(c[n+](C)c3c4cc5c(cc4ccc23)OCO5)c1OC.[Cl-]` [chelerythrine chloride, 1,2-Dimethoxy-N-methyl(1,3) benzodioxolo(5,6-c)phenanthridinium chloride], the “hit identification in the primary screen with YpIspC” value on Y. pestis IspC (YpIspC) is listed as “identified as inhibitors of IspC”. Besides, the “antibacterial activity” value in [1] is “significantly inhibit bacterial growth”. Further, the EC50 in data set [4] (setting [11]) is over 100 µM.

(Values after paper PMC5817008 (Analytical biochemistry, 2017).)
